Results: US20250129028A1, “COMPOUNDS AND METHODS FOR YAP/TEAD MODULATION AND INDICATIONS THEREFOR” (Opna Bio SA, priority 2022, published 2025)

System: TEAD-dependent transcription
Test: TEAD-dependent transcription cell-based reporter assay (MSTO-211H+12XGTIIC luciferase)
Design: species or system human
Conditions: Homo sapiens; MSTO-211H+12XGTIIC cell line, luciferase signal normalized to cell viability, 24 hours compound incubation; read-out: MSTO-211H GMean IC50 (uM) Cell Assay Reporter Cell Variant: TEAD
Procedure, shortened: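 MSTO-211H mesothelioma cells stably carrying a 12xGTIIC TEAD-response-element luciferase reporter, treated with serial compound dilutions for 24 h at 37 °C. Luminescence normalized to CellTiter-Fluor viability signal; % inhibition versus DMSO and 20 μM K-975 controls, IC50 by nonlinear regression.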

| SMILES | IC50 |
| --- | --- |
| CS(=O)(=O)c1ccc(C(=O)N2CCc3ccc(Oc4ccc(C(F)(F)F)cc4)cc3C2)cn1 [P-0082, (6-(methylsulfonyl)pyr-idin-3-yl)(7-(4-(trifluoro-methyl)phenoxy)-3,4-dihydroisoquinolin-2(1H)-yl)methanone] | 0.001 to 10 µM |
| CC(C)NC(=O)N1CCc2c(cccc2Oc2ccc(C(F)(F)F)cc2)C1 [P-0233, N-isopropyl-5-(4-(trifluoromethyl)phen-oxy)-3,4-dihydroisoquin-oline-2(1H)-carboxamide] | 0.001 to 10 µM |
| NS(=O)(=O)N1CCc2ccc(Oc3ccc(C(F)(F)F)cc3)cc2C1 [P-0001, 7-(4-(trifluoromethyl)-phenoxy)-3,4-dihydroiso-quinoline-2(1H)-sulfon-amide] | 0.001 to 10 µM |
| CC(=O)N1CC(CC2c3cc(Oc4ccc(C(F)(F)F)cc4)ccc3CCN2C(=O)CCS(C)(=O)=O)C1 (stereo not drawn) [P-0200, 1-(1-((1-acetylazetidin-3-yl)methyl)-7-(4-(trifluoromethyl)phen-oxy)-3,4-dihydroisoquin-olin-2(1H)-yl)-3-(methyl-sulfonyl)propan-1-one] | 0.001 to 10 µM |
| Nc1nc(C(=O)N2CCc3ccc(Oc4ccc(C(F)(F)F)cc4)cc3C2)c[nH]1 [P-0107, (2-amino-1H-imidazol-4-yl)(7-(4-(trifluoromethyl)-phenoxy)-3,4-dihydroiso-quinolin-2(1H)-yl)meth-anone] | 0.001 to 10 µM |
| CS(=O)(=O)CCC(=O)N1CCc2c(cccc2Oc2ccc(C(F)(F)F)cc2)C1 [P-0269, 3-(methylsulfonyl)-1-(5-(4-(trifluoromethyl)phen-oxy)-3,4-dihydroisoquin-olin-2(1H)-yl)propan-1-one] | 0.001 to 10 µM |
| NC(=O)NCC(=O)N1CCc2ccc(Oc3ccc(C(F)(F)F)cc3)cc2C1 [P-0079, 1-(2-oxo-2-(7-(4-(trifluoromethyl)phen-oxy)-3,4-dihydroisoquin-olin-2(1H)-yl)ethyl)urea] | 0.001 to 10 µM |
| Nc1nc(CC(=O)N2CCc3ccc(Oc4ccc(C(F)(F)F)c(F)c4)cc3C2)cs1 [P-0155, 2-(2-aminothiazol-4-yl)-1-(7-(3-fluoro-4-(trifluoromethyl)phen-oxy)-3,4-dihydroisoquin-olin-2(1H)-yl)ethan-1-one] | 0.001 to 10 µM |
| O=C(CCc1cnc[nH]1)N1CCc2ccc(Oc3ccc(C(F)(F)F)c(F)c3)cc2C1 [P-0151, 1-(7-(3-fluoro-4-(trifluoromethyl)phen-oxy)-3,4-dihydroisoquin-olin-2(1H)-yl)-3-(1H-imidazol-5-yl)propan-1-one] | 0.001 to 10 µM |
| CN(C(=O)N1CCc2ccc(Oc3ccc(C(F)(F)F)cc3)cc2C1)C1CCS(=O)(=O)C1 (stereo not drawn) [P-0065, N-(1,1-dioxidotetra-hydrothiophen-3-yl)-N-methyl-7-(4-(trifluoro-methyl)phenoxy)-3,4-dihydroisoquinoline-2(1H)-carboxamide] | 0.001 to 10 µM |
| O=C(C1CCCNC1)N1CCc2ccc(Oc3ccc(C(F)(F)F)c(F)c3)cc2C1 (stereo not drawn) [P-0146, (7-(3-fluoro-4-(trifluoro-methyl)phenoxy)-3,4-dihydroisoquinolin-2(1H)-yl)(piperidin-3-yl)methanone] | 0.001 to 10 µM |
| C=CC(=O)N1CCC(C(=O)N2CCc3ccc(Oc4ccc(C(F)(F)F)c(F)c4)cc3C2)C1 (stereo not drawn) [P-0119, 1-(3-(7-(3-fluoro-4-(trifluoromethyl)phen-oxy)-1,2,3,4-tetrahydro-isoquinoline-2-carbon-yl)pyrrolidin-1-yl)prop-2-en-1-one] | 0.001 to 10 µM |
| CC(C)=Cc1c(Oc2ccc(C(F)(F)F)cc2)ccc2c1CN(C(=O)CCS(C)(=O)=O)CC2 [P-0221, 1-(8-(2-methylprop-1-en-1-yl)-7-(4-(trifluorometh-yl)phenoxy)-3,4-dihydro-isoquinolin-2(1H)-yl)-3-(methylsulfonyl)pro-pan-1-one] | 0.001 to 10 µM |
| O=C(CNC(=O)C(F)(F)F)N1CCc2ccc(Oc3ccc(C(F)(F)F)cc3)cc2C1 [P-0100, 2,2,2-trifluoro-N-(2-oxo-2-(7-(4-(trifluoromethyl)-phenoxy)-3,4-dihydroiso-quinolin-2(1H)-yl)ethyl)-acetamide] | 0.001 to 10 µM |
| O=C(C1CCS(=O)(=O)C1)N1CCc2ccc(Oc3ccc(C(F)(F)F)cc3)cc2C1 (stereo not drawn) [P-0045, (1,1-dioxidotetrahydro-thiophen-3-yl)(7-(4-(trifluoromethyl)phen-oxy)-3,4-dihydroisoquin-olin-2(1H)-yl)methanone] | 0.001 to 10 µM |
| O=C(Cc1cn[nH]c1)N1CCc2ccc(Oc3ccc(C(F)(F)F)cc3)cc2C1 [P-0099, 2-(1H-pyrazol-4-yl)-1-(7-(4-(trifluoromethyl)phen-oxy)-3,4-dihydroisoquin-olin-2(1H)-yl)ethan-1-one] | 10 to 100 µM |
| O=C(CN1C(=O)CCC1=O)N1CCc2ccc(Oc3ccc(C(F)(F)F)cc3)cc2C1 [P-0044, 1-(2-oxo-2-(7-(4-(trifluoromethyl)phen-oxy)-3,4-dihydroiso-quinolin-2(1H)-yl)-ethyl)pyrrolidine-2,5-dione] | 0.001 to 10 µM |
| CS(=O)(=O)CCC(=O)N1CCc2ccc(Oc3ccc(C(F)(F)F)cc3)cc2C1C1CCN(C(=O)C2CC2)CC1 (stereo not drawn) [P-0210, 1-(1-(1-(cyclopropanecarbonyl)piperidin-4-yl)-7-(4-(trifluoromethyl)phenoxy)-3,4-dihydroisoquinolin-2(1H)-yl)-3-(methylsulfonyl)propan-1-one] | 0.001 to 10 µM |
| CCC1c2cc(Oc3ccc(C(F)(F)F)cc3)ccc2CCN1C(=O)CNC(N)=O (stereo not drawn) [P-0219, 1-(2-(1-ethyl-7-(4-(trifluoromethyl)phen-oxy)-3,4-dihydroisoquin-olin-2(1H)-yl)-2-oxoeth-yl)urea] | 0.001 to 10 µM |
| Nc1nc(C(=O)N2CCc3c(cccc3-c3ccc(C(F)(F)F)cc3)C2)cs1 [P-0274] | 0.001 to 10 µM |
| O=C(CCS(=O)(=O)C(F)(F)F)N1CCc2ccc(Oc3ccc(C(F)(F)F)c(F)c3)cc2C1 [P-0141, 1-(7-(3-fluoro-4-(trifluoromethyl)phen-oxy)-3,4-dihydroiso-quinolin-2(1H)-yl)-3-((trifluoromethyl)sulfon-yl)propan-1-one] | 0.001 to 10 µM |
| O=C(CCc1ncc[nH]1)N1CCc2c(cccc2Oc2ccc(C(F)(F)F)cc2)C1 [P-0249, 3-(1H-imidazol-2-yl)-1-(5-(4-(trifluoromethyl)-phenoxy)-3,4-dihydro-isoquinolin-2(1H)-yl)pro-pan-1-one] | 0.001 to 10 µM |
| CS(=O)(=O)CCC(=O)N1CCc2ccc(Oc3ccc(C(F)(F)F)cc3)cc2C1C1CCOCC1 (stereo not drawn) [P-0211, 3-(methylsulfonyl)-1-(1-(tetrahydro-2H-pyran-4-yl)-7-(4-(trifluorometh-yl)phenoxy)-3,4-dihydro-isoquinolin-2(1H)-yl)-propan-1-one] | 0.001 to 10 µM |
| O=C(C(O)CO)N1CCc2ccc(Oc3ccc(C(F)(F)F)cc3)cc2C1 (stereo not drawn) [P-0007, 2,3-dihydroxy-1-(7-(4-(trifluoromethyl)phen-oxy)-3,4-dihydroisoquin-olin-2(1H)-yl)propan-1-one] | 0.001 to 10 µM |
| O=C(CCc1nnc[nH]1)N1CCc2ccc(Oc3ccc(C(F)(F)F)cc3)cc2C1 [P-0058, 3-(4H-1,2,4-triazol-3-yl)-1-(7-(4-(trifluorometh-yl)phenoxy)-3,4-dihydro-isoquinolin-2(1H)-yl)-propan-1-one] | 0.001 to 10 µM |
| CN(C)CCCC(=O)N1CCc2ccc(Oc3ccc(C(F)(F)F)c(F)c3)cc2C1 [P-0110, 4-(dimethylamino)-1-(7-(3-fluoro-4-(trifluoro-methyl)phenoxy)-3,4-dihydroisoquinolin-2(1H)-yl)butan-1-one] | 0.001 to 10 µM |
| CN(CCC#N)C(=O)N1CCc2ccc(Oc3ccc(C(F)(F)F)cc3)cc2C1 [P-0066] | 0.001 to 10 µM |
